Measurements from patent publication US12187746B2, “C26-linked rapamycin analogs as mTOR inhibitors” (Revolution Medicines, Inc., priority 2018, dated 2025).

Tests used:
[1] = tested on: P-Akt (S473); experiment: Cell based AlphaLISA assay, inhibition of P-Akt (S473) in MDA-MB-468 cells; settings: Homo sapiens, 4 h, 0.017-1,000 nM, two to four hours at 37° C., AlphaLisa SureFire Ultra, read-out: pIC50 for Inhibition of mTORC1 and mTORC2 Substrate Phosphorylation, p-AKT1/2/3-(S473) (converted)
Experimental: (§1) Cell Based AlphaLISA Assays For Determining IC50 For Inhibition of P-Akt (S473), P-4E-BP1 (T37/46), and P-P70S6K (T389) in MDA-MB-468 Cells
(§2) mTOR Kinase Cellular Assay
(§3) To measure functional activity of mTORC1 and mTORC2 in cells the phosphorylation of 4EBP1 (Thr37/46) and P70S6K (Thr389), and AKT1/2/3 (Ser473) was monitored using AlphaLisa SureFire Ultra Kits (Perkin Elmer). […] Incubations are terminated by removal of the assay buffer and addition of lysis buffer provided with the assay kit. Samples are processed according to the manufacturer's instructions. The Alpha signal from the respective phosphoproteins is measured in duplicate using a microplate reader (Envision, Perkin-Elmer or Spectramax M5, Molecular Devices). Inhibitor concentration response curves are analyzed using normalized IC50 regression curve fitting with control based normalization.

[2] = tested on: P-P70S6K (T389); experiment: Cell based AlphaLISA assay, inhibition of P-P70S6K (T389) in MDA-MB-468 cells; settings: Homo sapiens, 4 h, 0.017-1,000 nM, two to four hours at 37° C., AlphaLisa SureFire Ultra, read-out: pIC50 for Inhibition of mTORC1 and mTORC2 Substrate Phosphorylation, p-P70S6K-(T389) (converted)
Experimental: as §1, §2, §3

[3] = tested on: P-4E-BP1 (T37/46); experiment: Cell based AlphaLISA assay, inhibition of P-4E-BP1 (T37/46) in MDA-MB-468 cells; settings: Homo sapiens, 4 h, 0.017-1,000 nM, two to four hours at 37° C., AlphaLisa SureFire Ultra, read-out: pIC50 for Inhibition of mTORC1 and mTORC2 Substrate Phosphorylation, p-4E-BP1-(T37/46) (converted)
Experimental: as §1, §2, §3

SMILES | IC50 [1] | IC50 [2] | IC50 [3]
CO[C@H]1C[C@@H]2CC[C@@H](C)[C@@](O)(O2)C(=O)C(=O)N2CCCC[C@H]2C(=O)O[C@H]([C@H](C)C[C@@H]2CC[C@@H](O)[C@H](OC)C2)C[C@@H](O)[C@H](C)/C=C(\C)[C@@H](O)[C@@H](OC)C(=NOCC(=O)NCCOCCOCCOCCOCCOCCOCCOCCOCCC(=O)NCCCCn2nc(-c3cnc4[nH]ccc4c3)c3c(N)ncnc32)[C@H](C)C[C@H](C)/C=C/C=C/C=C/1C [Example 6] | > 1 µM | 0.001 to 0.01 µM | 0.00316 to 0.0316 µM
CO[C@H]1C[C@@H]2CC[C@@H](C)[C@@](O)(O2)C(=O)C(=O)N2CCCC[C@H]2C(=O)O[C@H]([C@H](C)C[C@@H]2CC[C@@H](O)[C@H](OC)C2)C[C@@H](O)[C@H](C)/C=C(\C)[C@@H](O)[C@@H](OC)C(=NOCC(=O)NCc2cnc(N3CCN(c4ncc(C(=O)NCCOCCC(=O)N5CCc6cc(Cn7nc(-c8ccc9oc(N)nc9c8)c8c(N)ncnc87)ccc6C5)cn4)[C@H](CN(C)C)C3)nc2)[C@H](C)C[C@H](C)/C=C/C=C/C=C/1C [Example 49] | > 1 µM | 0.001 to 0.01 µM | 0.00316 to 0.0316 µM
CO[C@H]1C[C@@H]2CC[C@@H](C)[C@@](O)(O2)C(=O)C(=O)N2CCCC[C@H]2C(=O)O[C@H]([C@H](C)C[C@@H]2CC[C@@H](O)[C@H](OC)C2)C[C@@H](O)[C@H](C)/C=C(\C)[C@@H](O)[C@@H](OC)C(=NOCC(=O)NCc2cnc(N3CCN(CCOCCN4CCN(c5ncc(C(=O)N6CCc7cc(Cn8nc(-c9ccc%10oc(N)nc%10c9)c9c(N)ncnc98)ccc7C6)cn5)CC4)CC3)nc2)[C@H](C)C[C@H](C)/C=C/C=C/C=C/1C [Example 59] | > 1 µM | < 0.001 µM | 0.00316 to 0.0316 µM
CO[C@H]1C[C@@H]2CC[C@@H](C)[C@@](O)(O2)C(=O)C(=O)N2CCCC[C@H]2C(=O)O[C@H]([C@H](C)C[C@@H]2CC[C@@H](O)[C@H](OC)C2)C[C@@H](O)[C@H](C)/C=C(\C)[C@@H](O)[C@@H](OC)C(=NOCC(=O)N2CCc3nc(N4CCN(c5ncc(C(=O)NCCOCCOCCOCCC(=O)NCCCCn6nc(-c7ccc8oc(N)nc8c7)c7c(N)ncnc76)cn5)CC4)ncc3C2)[C@H](C)C[C@H](C)/C=C/C=C/C=C/1C [Example 15] | 0.0316 to 1 µM | 0.001 to 0.01 µM | 0.00316 to 0.0316 µM
CO[C@H]1C[C@@H]2CC[C@@H](C)[C@@](O)(O2)C(=O)C(=O)N2CCCC[C@H]2C(=O)O[C@H]([C@H](C)C[C@@H]2CC[C@@H](O)[C@H](OC)C2)C[C@@H](O)[C@H](C)/C=C(\C)[C@@H](O)[C@@H](OC)C(=NOCC(=O)NC2CCN(CC(=O)NCCOCCOCCOCCOCCOCCOCCC(=O)N3CCc4cc(Cn5nc(-c6ccc7oc(N)nc7c6)c6c(N)ncnc65)ccc4C3)CC2)[C@H](C)C[C@H](C)/C=C/C=C/C=C/1C [Example 68] | 0.0316 to 1 µM | 0.001 to 0.01 µM | 0.00316 to 0.0316 µM
CO[C@H]1C[C@@H]2CC[C@@H](C)[C@@](O)(O2)C(=O)C(=O)N2CCCC[C@H]2C(=O)O[C@H]([C@H](C)C[C@@H]2CC[C@@H](O)[C@H](OC)C2)C[C@@H](O)[C@H](C)/C=C(\C)[C@@H](O)[C@@H](OC)C(=NOCC(=O)NCc2cnc(N3CCN(C(=O)CCCN4CCN(c5ncc(C(=O)N6CCC(n7nc(-c8ccc9oc(N)nc9c8)c8c(N)ncnc87)CC6)cn5)CC4)CC3)nc2)[C@H](C)C[C@H](C)/C=C/C=C/C=C/1C [Example 66] | > 1 µM | 0.001 to 0.01 µM | > 1 µM
CO[C@H]1C[C@@H]2CC[C@@H](C)[C@@](O)(O2)C(=O)C(=O)N2CCCC[C@H]2C(=O)O[C@H]([C@H](C)C[C@@H]2CC[C@@H](O)[C@H](OC)C2)C[C@@H](O)[C@H](C)/C=C(\C)[C@@H](O)[C@@H](OC)C(=NOCC(=O)NCc2cnc(N3CCN(C(=O)CCOCCN4CCN(c5ncc(C(=O)N6CCc7cc(Cn8nc(-c9ccc%10oc(N)nc%10c9)c9c(N)ncnc98)ccc7C6)cn5)CC4)CC3)nc2)[C@H](C)C[C@H](C)/C=C/C=C/C=C/1C [Example 30] | > 1 µM | < 0.001 µM | 0.00316 to 0.0316 µM
CO[C@H]1C[C@@H]2CC[C@@H](C)[C@@](O)(O2)C(=O)C(=O)N2CCCC[C@H]2C(=O)O[C@H]([C@H](C)C[C@@H]2CC[C@@H](O)[C@H](OC)C2)C[C@@H](O)[C@H](C)/C=C(\C)[C@@H](O)[C@@H](OC)C(=NOCC(=O)NCc2cnc(N3CCN(c4ncc(C(=O)NCCOCCC(=O)NCCCCn5nc(-c6ccc7oc(N)nc7c6)c6c(N)ncnc65)c(N)n4)CC3)nc2)[C@H](C)C[C@H](C)/C=C/C=C/C=C/1C [Example 51] | > 1 µM | 0.01 to 1 µM | > 1 µM
COc1ccc(-c2ccc3ncc4c(c3c2)n(-c2ccc(N3CCN(C(=O)CCOCCOCCOCCOCCOCCOCCNC(=O)CON=C5[C@H](C)C[C@H](C)/C=C/C=C/C=C(\C)[C@@H](OC)C[C@@H]6CC[C@@H](C)[C@@](O)(O6)C(=O)C(=O)N6CCCC[C@H]6C(=O)O[C@H]([C@H](C)C[C@@H]6CC[C@@H](O)[C@H](OC)C6)C[C@@H](O)[C@H](C)/C=C(\C)[C@@H](O)[C@H]5OC)CC3)c(C(F)(F)F)c2)c(=O)n4C)cn1 [Example 13] | 0.00316 to 0.0316 µM | < 0.001 µM | < 0.00316 µM
CO[C@H]1C[C@@H]2CC[C@@H](C)[C@@](O)(O2)C(=O)C(=O)N2CCCC[C@H]2C(=O)O[C@H]([C@H](C)C[C@@H]2CC[C@@H](O)[C@H](OC)C2)C[C@@H](O)[C@H](C)/C=C(\C)[C@@H](O)[C@@H](OC)C(=NOCC(=O)NCc2cnc(N3CCN(c4ncc(C(=O)NCCOCCOCCOCCC(=O)NCCCCn5nc(-c6ccc7oc(N)nc7c6)c6c(N)ncnc65)cn4)CC3)nc2)[C@H](C)C[C@H](C)/C=C/C=C/C=C/1C [Example 20] | > 1 µM | 0.001 to 0.01 µM | 0.00316 to 0.0316 µM
CO[C@H]1C[C@@H]2CC[C@@H](C)[C@@](O)(O2)C(=O)C(=O)N2CCCC[C@H]2C(=O)O[C@H]([C@H](C)C[C@@H]2CC[C@@H](O)[C@H](OC)C2)C[C@@H](O)[C@H](C)/C=C(\C)[C@@H](O)[C@@H](OC)C(=NOCC(=O)N2CCc3nc(N4CCN(C(=O)CCOCCN5CCN(c6ncc(C(=O)N7CCc8cc(Cn9nc(-c%10ccc%11oc(N)nc%11c%10)c%10c(N)ncnc%109)ccc8C7)cn6)CC5)CC4)ncc3C2)[C@H](C)C[C@H](C)/C=C/C=C/C=C/1C [Example 57] | > 1 µM | < 0.001 µM | 0.00316 to 0.0316 µM
CO[C@H]1C[C@@H]2CC[C@@H](C)[C@@](O)(O2)C(=O)C(=O)N2CCCC[C@H]2C(=O)O[C@H]([C@H](C)C[C@@H]2CC[C@@H](O)[C@H](OC)C2)C[C@@H](O)[C@H](C)/C=C(\C)[C@@H](O)[C@@H](OC)C(=NOC(C)(C)C(=O)NCCOCCOCCOCCOCCOCCOCCC(=O)N2CCc3cc(Cn4nc(-c5ccc6oc(N)nc6c5)c5c(N)ncnc54)ccc3C2)[C@H](C)C[C@H](C)/C=C/C=C/C=C/1C [Example 48] | > 1 µM | 0.01 to 1 µM | 0.00316 to 0.0316 µM
CO[C@H]1C[C@@H]2CC[C@@H](C)[C@@](O)(O2)C(=O)C(=O)N2CCCC[C@H]2C(=O)O[C@H]([C@H](C)C[C@@H]2CC[C@@H](O)[C@H](OC)C2)C[C@@H](O)[C@H](C)/C=C(\C)[C@@H](O)[C@@H](OC)C(=NOCC(=O)NCc2cnc(N3CCN(C(=O)CN(C)CC(=O)NCCOCCOCCC(=O)N4CCc5cc(Cn6nc(-c7ccc8oc(N)nc8c7)c7c(N)ncnc76)ccc5C4)CC3)nc2)[C@H](C)C[C@H](C)/C=C/C=C/C=C/1C [Example 25] | > 1 µM | 0.001 to 0.01 µM | 0.0316 to 1 µM
COc1ccc(-c2ccc3ncc4c(c3c2)n(-c2ccc(N3CCN(c5ncc(CNC(=O)CCOCCOCCOCCOCCOCCOCCNC(=O)CON=C6[C@H](C)C[C@H](C)/C=C/C=C/C=C(\C)[C@@H](OC)C[C@@H]7CC[C@@H](C)[C@@](O)(O7)C(=O)C(=O)N7CCCC[C@H]7C(=O)O[C@H]([C@H](C)C[C@@H]7CC[C@@H](O)[C@H](OC)C7)C[C@@H](O)[C@H](C)/C=C(\C)[C@@H](O)[C@H]6OC)cn5)CC3)c(C(F)(F)F)c2)c(=O)n4C)cn1 [Example 14] | 0.0316 to 1 µM | < 0.001 µM | 0.00316 to 0.0316 µM
CO[C@H]1C[C@@H]2CC[C@@H](C)[C@@](O)(O2)C(=O)C(=O)N2CCCC[C@H]2C(=O)O[C@H]([C@H](C)C[C@@H]2CC[C@@H](O)[C@H](OC)C2)C[C@@H](O)[C@H](C)/C=C(\C)[C@@H](O)[C@@H](OC)C(=NOCC(=O)NCCOCCOCCOCCOCCOCCOCCC(=O)NC2CCN(CC(=O)N3CCc4cc(Cn5nc(-c6ccc7oc(N)nc7c6)c6c(N)ncnc65)ccc4C3)CC2)[C@H](C)C[C@H](C)/C=C/C=C/C=C/1C [Example 69] | > 1 µM | 0.001 to 0.01 µM | 0.00316 to 0.0316 µM
